From the NIST ThermoML archive (doi:10.1021/acs.jced.8b00425)
Numbers after ± are expanded uncertainties.

Experiments:
[1] = Crystal; DSC
[2] = Molar enthalpy of transition or fusion; conditions: Crystal; DSC

Triple point temperature [1]: 555.66 ± 0.88 K
Molar enthalpy of transition or fusion [2]: 6.88 ± 0.177 kcal/mol
Compound: O=c1[nH]cc(F)c(=O)[nH]1 [5-fluoro-2,4(1H,3H)-pyrimidinedione]
